Here are results for one compound from ChEMBL document CHEMBL1687838, “The in vitro contribution of autolysins to bacterial killing elicited by amoxicillin increases with inoculum size in Enterococcus faecalis” (2011).

Values after ≈ are worked out from the molar mass of the structure shown. Active and inactive are the calls of the source.

Usually MIC stands for the smallest concentration in the dilution series that meets the test's criterion for growth inhibition.

Test [1] has as its system Enterococcus faecalis. Nature of the test: Bactericidal activity against 5 X 10^8 CFU/ml Enterococcus faecalis JH2-2 harboring deletion at AltA, AltB and AltC gene at 2 ug/ml after 24 hrs by time kill analysis. Type of test: functional.
Test [2] deals with Enterococcus faecalis. Nature of the test: Bactericidal activity against 5 X 10^8 CFU/ml Enterococcus faecalis JH2-2 at 2 ug/ml after 6 hrs by time kill analysis. The format is functional.
Test [3] relates to Enterococcus faecalis. The test is described as follows: Bactericidal activity against 5 X 10^8 CFU/ml Enterococcus faecalis JH2-2 harboring deletion at AltA, AltB and AltC gene infected in rabbit assessed as bacterial load per gram of vegetation at 50 mg/kg, im administered three times a day starting 48 hrs post-infection measured after 24 hrs by time kill analysis (reference value: 8.69+- 1.19 log10 CFU/g). The format is functional. Particulars: route intramuscular.

The subject of test [4] is Enterococcus faecalis. Nature of the test: Antibacterial activity against Enterococcus faecalis JH2-2 by CLSI method. Type of test: functional.
Test [5] deals with Enterococcus faecalis. The test is described as follows: Antibacterial activity against Enterococcus faecalis JH2-2 harboring deletion at AltA, AltB and AltC gene by CLSI method. Type of test: functional.
Test [6] has as its system Enterococcus faecalis. The test is described as follows: Bactericidal activity against 5 X 10^6 CFU/ml Enterococcus faecalis JH2-2 harboring deletion at AltA, AltB and AltC gene at 2 ug/ml after 24 hrs by time kill analysis. The format is functional.
The subject of test [7] is Enterococcus faecalis. The test is described as follows: Bactericidal activity against 5 X 10^6 CFU/ml Enterococcus faecalis JH2-2 at 2 ug/ml after 24 hrs by time kill analysis. The format is functional.
Test [8] deals with Enterococcus faecalis. The test is described as follows: Bactericidal activity against 5 X 10^6 CFU/ml Enterococcus faecalis JH2-2 harboring deletion at AltA, AltB and AltC gene at 2 ug/ml after 3 hrs by time kill analysis. The format is functional.
The subject of test [9] is Enterococcus faecalis. The test is described as follows: Bactericidal activity against 5 X 10^8 CFU/ml Enterococcus faecalis JH2-2 at 2 ug/ml after 3 hrs by time kill analysis. The format is functional.
For test [10], the system named is Enterococcus faecalis. Nature of the test: Bactericidal activity against 5 X 10^6 CFU/ml Enterococcus faecalis JH2-2 at 2 ug/ml after 3 hrs by time kill analysis. The format is functional.
Test [11] has as its system Enterococcus faecalis. The test is described as follows: Antibacterial activity against Enterococcus faecalis JH2-2 harboring deletion at AltA, AltB and AltC gene assessed as induction of membrane permeabilization at 2 ug/ml after 3 hrs by propidium iodide and Syto9 staining based confocal microscopic analysis. Type of test: functional, organism-based.
Test [12] deals with Enterococcus faecalis. Nature of the test: Antibacterial activity against Enterococcus faecalis JH2-2 assessed as induction of membrane permeabilization at 2 ug/ml after 3 hrs by propidium iodide and Syto9 staining based confocal microscopic analysis. Type of test: functional, organism-based.
For test [13], the system named is Enterococcus faecalis. Nature of the test: Bactericidal activity against 5 X 10^8 CFU/ml Enterococcus faecalis JH2-2 harboring deletion at AltA, AltB and AltC gene at 2 ug/ml after 6 hrs by time kill analysis. Type of test: functional.
For test [14], the system named is Enterococcus faecalis. The test is described as follows: Bactericidal activity against 5 X 10^8 CFU/ml Enterococcus faecalis JH2-2 infected in rabbit assessed as bacterial load per gram of vegetation at 50 mg/kg, im administered three times a day starting 48 hrs post-infection measured after 24 hrs by time kill analysis (reference value: 9.29+- 0.83 log10 CFU/g). Type of test: functional. Particulars: route intramuscular.

Test [15] deals with Enterococcus faecalis. The test is described as follows: Bactericidal activity against 5 X 10^8 CFU/ml Enterococcus faecalis JH2-2 at 2 ug/ml after 24 hrs by time kill analysis. The format is functional.
Test [16] has as its system Enterococcus faecalis. Nature of the test: Bactericidal activity against 5 X 10^6 CFU/ml Enterococcus faecalis JH2-2 harboring deletion at AltA, AltB and AltC gene at 2 ug/ml after 6 hrs by time kill analysis. Type of test: functional.
Test [17] deals with Enterococcus faecalis. The test is described as follows: Bactericidal activity against 5 X 10^8 CFU/ml Enterococcus faecalis JH2-2 harboring deletion at AltA, AltB and AltC gene at 2 ug/ml after 3 hrs by time kill analysis. Type of test: functional.
For test [18], the system named is Enterococcus faecalis. The test is described as follows: Bactericidal activity against 5 X 10^6 CFU/ml Enterococcus faecalis JH2-2 at 2 ug/ml after 6 hrs by time kill analysis. Type of test: functional.

With `CC1(C)S[C@@H]2[C@H](NC(=O)[C@H](N)c3ccc(O)cc3)C(=O)N2[C@H]1C(=O)O` [AMOXICILLIN], the log10CFU/ml with Enterococcus faecalis [1] amounted to 2.46; with Enterococcus faecalis [2] it was 4.59; with Enterococcus faecalis [6], 4.44; in the test with Enterococcus faecalis [7] it was 2.48; with Enterococcus faecalis [8] it was 3.15; in the test on Enterococcus faecalis [9], 1.73. Also, the log10CFU/ml in the test with Enterococcus faecalis [10] was 2.07; in the test with Enterococcus faecalis [13], 0.79; in the test on Enterococcus faecalis [15], 1.1; in the test on Enterococcus faecalis [16] it was 1.45; with Enterococcus faecalis [17] it was 2.83; in the test on Enterococcus faecalis [18], 4.86. Further, the values for the log10CFU/g in the test on Enterococcus faecalis [3] and with Enterococcus faecalis [14] were 7.5 and 7.69, respectively. In addition, the minimal inhibitory concentration (MIC) in the test with Enterococcus faecalis [4] and against Enterococcus faecalis [5] was 0.5 µg/mL (≈ 1.37 µM) each time. Besides, the result in the test with Enterococcus faecalis [11] and with Enterococcus faecalis [12] was Active.
